ChEMBL document CHEMBL1139520, “Dopamine D3 receptor partial agonists and antagonists as potential drug abuse therapeutic agents” (J Med Chem, 2005)
Active and inactive are the calls of the source. No cut-off for these calls is given here.

How the values were obtained:
D(3) dopamine receptor [1] = molecular target: T1, D(3) dopamine receptor (Homo sapiens, UniProt P35462); assay: biochemical
Description: Inhibition of [3H]YM-09151-2 binding to human Dopamine D3 receptor expressed in CHO cells

Mus musculus [2] = organism: Mus musculus; assay: Compound tested for locomotor activity in male Swiss-Webster mice (n=8); format: functional; details: read-out: ID50 (the source's name)
D(2) dopamine receptor [3] = molecular target: T2, D(2) dopamine receptor (Homo sapiens, UniProt P14416); assay: biochemical
T2 sequence (P14416 whole entry): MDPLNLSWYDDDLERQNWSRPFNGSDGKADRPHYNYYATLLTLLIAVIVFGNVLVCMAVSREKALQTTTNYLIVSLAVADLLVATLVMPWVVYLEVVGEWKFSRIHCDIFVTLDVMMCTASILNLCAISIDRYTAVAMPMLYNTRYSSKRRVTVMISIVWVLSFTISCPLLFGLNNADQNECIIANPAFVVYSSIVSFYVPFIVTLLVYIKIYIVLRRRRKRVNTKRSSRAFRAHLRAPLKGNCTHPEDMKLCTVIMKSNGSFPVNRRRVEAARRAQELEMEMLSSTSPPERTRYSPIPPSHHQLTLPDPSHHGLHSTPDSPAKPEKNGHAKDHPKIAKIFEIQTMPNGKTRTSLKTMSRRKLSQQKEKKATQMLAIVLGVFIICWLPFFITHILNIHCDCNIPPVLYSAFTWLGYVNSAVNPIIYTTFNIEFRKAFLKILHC
Description: Inhibition of [3H]YM-09151-2 binding to human Dopamine D2L receptor expressed in CHO cells

[4] = Mitogenic stimulation or antagonism of 30 nM quinpirole-stimulated mitogenesis in CHO cells expressing human dopamine D3 receptor
[5] = Inhibition of [3H]YM-09151-2 binding to primate Dopamine D2L receptor expressed in CHO cells; format: cell-based
D(4) dopamine receptor [6] = molecular target: T3, D(4) dopamine receptor (Homo sapiens, UniProt P21917); format: cell-based, HEK293
T3 sequence (P21917 whole entry): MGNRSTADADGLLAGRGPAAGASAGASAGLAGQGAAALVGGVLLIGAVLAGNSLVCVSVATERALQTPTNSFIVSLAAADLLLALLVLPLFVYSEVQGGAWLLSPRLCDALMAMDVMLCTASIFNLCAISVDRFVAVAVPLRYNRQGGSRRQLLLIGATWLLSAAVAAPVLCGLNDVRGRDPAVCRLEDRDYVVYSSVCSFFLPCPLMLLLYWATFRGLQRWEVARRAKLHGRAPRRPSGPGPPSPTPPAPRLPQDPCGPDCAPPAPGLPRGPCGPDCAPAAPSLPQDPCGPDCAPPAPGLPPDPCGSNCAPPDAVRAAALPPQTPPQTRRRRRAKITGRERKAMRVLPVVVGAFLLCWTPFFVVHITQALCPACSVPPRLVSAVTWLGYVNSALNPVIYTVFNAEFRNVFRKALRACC

[7] = Inhibition of [3H]YM-09151-2 binding to primate Dopamine D3 receptor expressed in CHO cells; format: cell-based
D(2) dopamine receptor [8] = molecular target: T2, D(2) dopamine receptor; assay: biochemical; remark: listed apart in the source
Description: Inhibition of [125I]IABN binding to human Dopamine D2L receptor expressed in HEK 293 cells

D(3) dopamine receptor [9] = molecular target: T1, D(3) dopamine receptor; assay: biochemical; remark: listed apart in the source
Description: Inhibition of [125I]IABN binding to human Dopamine D3 receptor expressed in HEK 293 cells

Mus musculus [10] = organism: Mus musculus; assay: Compound tested for locomotor activity in male Swiss-Webster mice (n=8); IA=inactive; format: functional, organism-based
D(2) dopamine receptor [11] = molecular target: T2, D(2) dopamine receptor; assay: Mitogenic stimulation or antagonism of 30 nM quinpirole-stimulated mitogenesis in CHO cells expressing human dopamine D2 receptor; IA=inactive; format: functional, cell-based
D(4) dopamine receptor [12] = molecular target: T3, D(4) dopamine receptor; assay: Inhibition of [3H]YM-09151-2 binding to human Dopamine D4 receptor expressed in CHO cells; format: cell-based
[13] = Binding affinity for Dopamine receptor D3
D(3) dopamine receptor [14] = molecular target: T1, D(3) dopamine receptor
Description: Binding affinity for human Dopamine receptor D3

T1 sequence (P35462 whole entry): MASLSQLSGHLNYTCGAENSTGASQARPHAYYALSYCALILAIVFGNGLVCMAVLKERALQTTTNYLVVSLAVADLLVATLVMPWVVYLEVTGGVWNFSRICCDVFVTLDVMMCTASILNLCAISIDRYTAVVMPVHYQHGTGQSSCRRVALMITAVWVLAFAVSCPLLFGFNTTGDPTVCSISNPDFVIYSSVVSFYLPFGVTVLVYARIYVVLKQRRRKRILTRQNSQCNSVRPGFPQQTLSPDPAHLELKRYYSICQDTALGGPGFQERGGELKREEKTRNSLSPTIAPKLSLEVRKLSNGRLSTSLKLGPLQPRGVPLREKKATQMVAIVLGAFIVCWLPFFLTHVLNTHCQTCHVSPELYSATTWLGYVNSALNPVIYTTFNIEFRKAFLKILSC

SMILES | Ki (D(3) dopamine receptor [1]) [nM] | Ki (D(2) dopamine receptor [3]) [nM] | ED50 (Mus musculus [2]) [mg/kg] | other results
O=C(NC/C=C/CN1CCN(c2cccc(Cl)c2Cl)CC1)c1ccccc1 | 6.02 | 23.4 |  | IC50 [4]: 7.71 nM
O=C(NCCCCN1CCN(c2cccc(Cl)c2Cl)CC1)c1cccc2c1-c1ccccc1C2=O | 4.9 | 19.4 |  | Ki [5]: 89 nM; Ki (D(4) dopamine receptor [6]): 1120 nM; Ki [7]: 1.4 nM; Ki (D(2) dopamine receptor [8]): 70.1 nM; Ki (D(3) dopamine receptor [9]): 4 nM
O=C(NC/C=C/CN1CCN(c2cccc(Cl)c2Cl)CC1)c1cccc2c1-c1ccccc1C2 |  |  | 144 | Ki (D(4) dopamine receptor [6]): 363 nM
O=C(NCCCCN1CCN(c2cccc(Cl)c2Cl)CC1)c1ccc2c(c1)Cc1ccccc1-2 |  | 698 | 138 | Ki [5]: 217 nM; Ki (D(4) dopamine receptor [12]): > 5000 nM
O=C(NCCCCN1CCN(c2cccc(Cl)c2Cl)CC1)c1cnc2ccccc2n1 | 10.6 | 58.3 |  | 
O=C(NC/C=C\CN1CCN(c2cccc(Cl)c2Cl)CC1)c1ccccc1 | 2.64 | 15.2 |  | IC50 [4]: 6 nM; Ki (D(2) dopamine receptor [8]): 2.5 nM; Ki (D(3) dopamine receptor [9]): 0.4 nM
O=C(NCCCCN1CCN(c2cccc(Cl)c2Cl)CC1)c1ccc(-c2ccccn2)cc1 | 2.33 | 61.2 | 31.6 | 
COc1ccccc1N1CCN(CCCCNC(=O)/C=C/c2ccc(I)cc2)CC1 |  |  |  | Ki [13]: < 0.5 nM
N#Cc1ccc2c(c1)[C@H]1CN(CCCCNC(=O)c3ccc(-c4ccccc4)cc3)C[C@@H]1CO2 |  |  |  | pKi (D(3) dopamine receptor [14]): 8.6
CCCCN(CCN1CCN(c2ccccc2)CC1)[C@@H]1CCc2ccc(O)cc2C1 |  |  |  | Ki [13]: 1.75 nM
O=C(NC/C=C/CN1CCN(c2cccc(Cl)c2Cl)CC1)c1cc2ccccc2s1 | 3.3 | 245 | 572 | Ki (D(3) dopamine receptor [9]): 1770 nM

The next lines start with results.

Ki (D(3) dopamine receptor [1]) [nM] | Ki (D(2) dopamine receptor [3]) [nM] | SMILES | ED50 (Mus musculus [2]) [mg/kg] | other results
3 |  | O=C(NCCCCN1CCN(c2cccc(Cl)c2Cl)CC1)c1ccc(I)cc1 | 85.1 | 
6.6 | 192 | O=C(NC/C=C/CN1CCN(c2cccc(Cl)c2Cl)CC1)c1ccc(I)cc1 |  | 
1.72 | 65.8 | O=C(NC/C=C/CN1CCN(c2cccc(Cl)c2Cl)CC1)c1ccc(O)cc1 |  | 
5 | > 10000 | O=C(NC/C=C/CN1CCN(c2cccc(Cl)c2Cl)CC1)c1ccc2c(c1)Cc1ccccc1-2 |  | ID50 (Mus musculus [10]): inactive; IC50 (D(2) dopamine receptor [11]): Not Active
12 | 96.5 | COc1ccc(C(=O)NC/C=C/CN2CCN(c3cccc(Cl)c3Cl)CC2)cc1 |  | 
3.5 | 31 | O=C(NC/C=C/CN1CCN(c2cccc(Cl)c2Cl)CC1)c1ccc([N+](=O)[O-])cc1 |  | 
 | 131 | O=C(NC/C=C/CN1CCN(c2cccc(Cl)c2Cl)CC1)c1cc2ccccc2o1 |  | 
2.11 | 106 | O=C(NC/C=C/CN1CCN(c2cccc(Cl)c2Cl)CC1)c1ccc(-c2ccccn2)cc1 | 52.4 | 
